In PubChem BioAssay (NCI):
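Five compound concentrations were applied to cells in 96-well plates for 48 hours; endpoints were derived by simple linear interpolation of the resulting dose-response curve. Abbreviation: GI50, concentration required for 50% inhibition of growth. TGI marks complete inhibition of growth.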

Experiments:
Assay in all cases: DTP human tumour cell line panel, 48 h
[1] = tested on: MCF7 breast
[2] = tested on: MDA-MB-231 breast
[3] = tested on: SW-620 colon
[4] = tested on: NCI/ADR-RES ovarian
[5] = tested on: NCI-H460 lung
[6] = tested on: HOP-92 NSCLC
[7] = tested on: LOX IMVI melanoma
[8] = tested on: SF-295 CNS
[9] = tested on: COLO 205 colon
[10] = tested on: HCC-2998 colon
[11] = tested on: SK-MEL-5 melanoma
[12] = tested on: MOLT-4 leukemia
[13] = tested on: SNB-75 CNS
[14] = tested on: U251 CNS
[15] = tested on: CCRF-CEM leukemia
[16] = tested on: MALME-3M melanoma
[17] = tested on: SF-268 CNS
[18] = tested on: ACHN renal
[19] = tested on: SN12C renal
[20] = tested on: HCT-15 colon
[21] = tested on: SK-OV-3 ovarian
[22] = tested on: TK-10 renal
[23] = tested on: EKVX NSCLC
[24] = tested on: DU-145 prostate
[25] = tested on: SK-MEL-28 melanoma
[26] = tested on: SR leukemia
[27] = tested on: NCI-H23 lung
[28] = tested on: BT-549 breast
[29] = tested on: OVCAR-4 ovarian

O=C1/C(=C/c2ccc(F)c(F)c2)CN(C(=O)C(Cl)Cl)C/C1=C\c1ccc(F)c(F)c1
GI50 [1]: 42.4 nM | TGI [1]: 181 nM | GI50 [2]: 194 nM | TGI [2]: 692 nM | GI50 [3]: 21.5 nM | TGI [3]: 55.4 nM | GI50 [4]: 63.3 nM | TGI [4]: 868 nM | GI50 [5]: 134 nM | TGI [5]: 444 nM | GI50 [6]: 211 nM | TGI [6]: 629 nM | GI50 [7]: 22.2 nM | TGI [7]: 54.9 nM | GI50 [8]: 45.4 nM | TGI [8]: 210 nM | GI50 [9]: 175 nM | TGI [9]: 756 nM | GI50 [10]: 93.4 nM | TGI [10]: 235 nM | GI50 [11]: 190 nM | TGI [11]: 380 nM | GI50 [12]: 49.1 nM | TGI [12]: > 100000 nM | GI50 [13]: 290 nM | TGI [13]: 1300 nM | GI50 [14]: 33.1 nM | TGI [14]: 131 nM | GI50 [15]: 26.6 nM | TGI [15]: > 100000 nM | GI50 [16]: 199 nM | TGI [16]: 539 nM | GI50 [17]: 265 nM | TGI [17]: 982 nM | GI50 [18]: 77.6 nM | TGI [18]: 249 nM | GI50 [19]: 112 nM | TGI [19]: 381 nM | GI50 [20]: 30.3 nM | TGI [20]: 164 nM | GI50 [21]: 492 nM | TGI [21]: 1780 nM | GI50 [22]: 258 nM | TGI [22]: 840 nM | GI50 [23]: 188 nM | TGI [23]: 506 nM | GI50 [24]: 312 nM | TGI [24]: 925 nM | GI50 [25]: 208 nM | TGI [25]: 513 nM | GI50 [26]: 12.8 nM | TGI [26]: > 100000 nM | GI50 [27]: 139 nM | TGI [27]: 428 nM | GI50 [28]: 83.7 nM | TGI [28]: 340 nM | GI50 [29]: 233 nM
